Test results as given in PubChem BioAssay (NCI).
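1) Cells in 96-well plates. 2) Compound, 48 h, 5 concentrations. 3) Linear interpolation between surrounding doses. 4) Unreached endpoint = highest concentration. At the TGI there is no net growth.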

Assays:
Experiment in all cases: inhibition of tumour cell growth, NCI panel, 48 h
[1] = test system: M14 melanoma
[2] = test system: NCI-H460 lung
[3] = test system: 786-0 renal
[4] = test system: HCT-116 colon
[5] = test system: A549 NSCLC
[6] = test system: CCRF-CEM leukemia
[7] = test system: KM12 colon
[8] = test system: BT-549 breast
[9] = test system: UACC-62 melanoma
[10] = test system: UACC-257 melanoma
[11] = test system: K-562 leukemia
[12] = test system: SK-MEL-5 melanoma
[13] = test system: OVCAR-8 ovarian
[14] = test system: NCI-H522 lung
[15] = test system: NCI-H226 lung
[16] = test system: HOP-62 NSCLC
[17] = test system: HOP-92 NSCLC
[18] = test system: SW-620 colon
[19] = test system: RPMI-8226 leukemia
[20] = test system: NCI-H23 lung
[21] = test system: MDA-MB-231 breast
[22] = test system: MALME-3M melanoma
[23] = test system: OVCAR-5 ovarian
[24] = test system: LOX IMVI melanoma
[25] = test system: T-47D breast
[26] = test system: NCI/ADR-RES ovarian
[27] = test system: MCF7 breast
[28] = test system: HS 578T breast
[29] = test system: A498 renal
[30] = test system: U251 CNS
[31] = test system: MDA-MB-435
[32] = test system: SNB-19 CNS
[33] = test system: EKVX NSCLC
[34] = test system: SN12C renal
[35] = test system: OVCAR-3 ovarian
[36] = test system: RXF 393 renal
[37] = test system: SNB-75 CNS
[38] = test system: IGROV1 ovarian
[39] = test system: ACHN renal
[40] = test system: MOLT-4 leukemia
[41] = test system: HL-60(TB) leukemia
[42] = test system: HCT-15 colon
[43] = test system: SF-268 CNS
[44] = test system: HCC-2998 colon
[45] = test system: SK-OV-3 ovarian
[46] = test system: SK-MEL-2 melanoma
[47] = test system: HT29 colon
[48] = test system: UO-31 renal
[49] = test system: TK-10 renal
[50] = test system: SF-295 CNS
[51] = test system: SK-MEL-28 melanoma
[52] = test system: MDA-N
[53] = test system: DU-145 prostate
[54] = test system: CAKI-1 renal
[55] = test system: OVCAR-4 ovarian
[56] = test system: SF-539 CNS
[57] = test system: PC-3 prostate
[58] = test system: COLO 205 colon
[59] = test system: SR leukemia

Measured: TGI

CN(C)/N=C/c1cn(C)c(=O)n(C)c1=O
> 100 µM: [1] | [2] | [3] | [4] | [5] | [6] | [7] | [8] | [9] | [10] | [11] | [12] | [13] | [14] | [15] | [16] | [17] | [18] | [19] | [20] | [21] | [22] | [23] | [24] | [25] | [26] | [27] | [28] | [29] | [30] | [31] | [32] | [33] | [34] | [35] | [36] | [37] | [38] | [39] | [40] | [41] | [42] | [43] | [44] | [45] | [46] | [47] | [48] | [49] | [50] | [51] | [52] | [53] | [54] | [55] | [56] | [57] | [58]

O=C(O)[C@@H]1[C@H](C(=O)O)[C@H](C(=O)O)C[C@@H]1C(=O)O
> 100 µM: [1] | [2] | [3] | [4] | [5] | [7] | [8] | [9] | [10] | [11] | [12] | [13] | [14] | [15] | [16] | [17] | [18] | [19] | [20] | [21] | [22] | [23] | [24] | [25] | [26] | [27] | [28] | [29] | [30] | [31] | [32] | [33] | [34] | [35] | [36] | [37] | [38] | [39] | [40] | [42] | [59] | [43] | [45] | [46] | [47] | [48] | [49] | [50] | [51] | [52] | [53] | [54] | [55] | [56] | [57] | [58]
